For 48 compounds, EC50 and AC50 results are on record in ChEMBL document CHEMBL1201862, “PubChem BioAssay data set” (2004).

“And” between values parts separate entries of the source, which are not always exact repeats. Equal entries are not always repeated. The source made the active and inactive calls.

The subject of one series is H4. The series can be described thus: Luminescence Cell-Based Dose Response HTS to Identify Activators of 5'UTR Stem-Loop Driven Prion Protein mRNA Translation in H4 Neuroglioblastoma Cells. [Related pubchem assays: 1829 (Project Summary), 1814 (Primary HTS)]. The series is classed as functional. As to conditions: Homo sapiens.
A short description of series [1]: Luminescence Cell-Based Dose Response HTS to Identify Activators of Luciferase Translation or Activity in H4 […] Cells. [Related pubchem assays: 1829 (Project Summary), 1814 (Primary HTS)]. The series is classed as functional.
The nature of series [2]: Luminescence Cell-Based Dose Confirmation HTS to Identify Activators of 5'UTR Stem-Loop Driven Alpha-Synuclein mRNA Translation in H4 Neuroglioblastoma Cells. [Related pubchem assays: 1829 (Project Summary), 1814 (Primary HTS)]. The series is classed as functional.
The target in series [3] is T1, Heat shock factor protein 1 (Mus musculus, UniProt P38532).
T1 sequence (P38532 whole entry): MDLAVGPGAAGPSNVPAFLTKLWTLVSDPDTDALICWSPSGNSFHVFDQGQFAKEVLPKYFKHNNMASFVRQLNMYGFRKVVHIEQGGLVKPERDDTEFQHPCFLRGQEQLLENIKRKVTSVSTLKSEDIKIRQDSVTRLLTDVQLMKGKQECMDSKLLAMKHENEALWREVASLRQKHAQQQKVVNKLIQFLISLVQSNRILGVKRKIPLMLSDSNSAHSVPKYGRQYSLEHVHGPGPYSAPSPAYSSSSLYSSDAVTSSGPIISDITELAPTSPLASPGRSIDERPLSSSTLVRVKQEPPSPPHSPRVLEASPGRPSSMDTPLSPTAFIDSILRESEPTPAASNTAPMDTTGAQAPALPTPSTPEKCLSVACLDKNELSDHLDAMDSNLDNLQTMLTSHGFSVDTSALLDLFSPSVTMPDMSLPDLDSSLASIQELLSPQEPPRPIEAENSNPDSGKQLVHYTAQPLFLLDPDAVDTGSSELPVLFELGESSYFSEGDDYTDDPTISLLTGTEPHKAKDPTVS
The experiment in a line: decrease of HSF1-responsive luciferase luminescence – cell-based, NIH3T3, dose retest, confirmation (AID 2382).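 Also: NIH3T3 fibroblasts with HSF1-driven luciferase reporter stressed by proteasome inhibitor MG132; luminescence from HSF1-driven luciferase expression after 8 hours of MG132 stress.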 The series is classed as functional.

Another series has as its system INS1. The series can be described thus: INS-1E survival protection against cytokine death – cell-based, luminescence, retest, dose response (AID 449756).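 Also: cell death triggered by IL-1 beta plus TNF-alpha plus IFN-gamma mixture; protective hits raise ATP signal compared with cytokine alone wells.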 The series is classed as functional. To be noted: Rattus norvegicus.
Series [4] in a line: NIH3T3 cell viability loss – ATP luminescence, mouse fibroblasts, counter-screen, dose response (AID 2010).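 Also: cells exposed to compound for about 90 hours before reading.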 The series is classed as functional, cell-based.
Series [5] can be described thus: Trypanosoma cruzi growth suppression in host cells – NIH3T3 host cells, beta-gal luminescence, confirmation (AID 2044).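 Also: intracellular parasites grown in NIH/3T3 mouse fibroblasts as host cells; luminescent beta-galactosidase reporter signal from transgenic T. cruzi replicating inside host cells; inhibitors lower the luminescence signal.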 The series is classed as functional, cell-based.
A further series deals with Cytochrome P450 2C9 (Homo sapiens, UniProt P11712).
The next series deals with T2, Cytochrome P450 1A2 (Homo sapiens, UniProt P05177).
T2 sequence (P05177 whole entry): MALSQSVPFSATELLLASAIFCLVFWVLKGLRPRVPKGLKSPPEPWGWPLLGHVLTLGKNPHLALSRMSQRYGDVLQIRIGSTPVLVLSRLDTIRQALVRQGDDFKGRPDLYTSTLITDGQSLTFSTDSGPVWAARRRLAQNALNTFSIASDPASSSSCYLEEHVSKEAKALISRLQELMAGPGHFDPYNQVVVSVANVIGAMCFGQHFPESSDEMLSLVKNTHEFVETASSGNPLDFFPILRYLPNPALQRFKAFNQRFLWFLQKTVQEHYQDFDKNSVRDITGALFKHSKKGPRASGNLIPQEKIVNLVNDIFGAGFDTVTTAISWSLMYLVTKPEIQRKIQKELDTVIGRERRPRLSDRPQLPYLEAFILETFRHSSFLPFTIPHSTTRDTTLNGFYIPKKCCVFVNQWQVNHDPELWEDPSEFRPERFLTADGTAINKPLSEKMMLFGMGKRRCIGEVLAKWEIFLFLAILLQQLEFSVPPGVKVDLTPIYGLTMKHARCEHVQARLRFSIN

The target in another series is Cytochrome P450 2C19 (Homo sapiens, UniProt P33261). The series can be described thus: Cytochrome panel assay with activity outcomes. Panel member name: p450-cyp2c19 Compounds with AC50 equal or less than 10 uM are considered active. The series is classed as functional.
Sequence of Cytochrome P450 2C19 (P33261 whole entry): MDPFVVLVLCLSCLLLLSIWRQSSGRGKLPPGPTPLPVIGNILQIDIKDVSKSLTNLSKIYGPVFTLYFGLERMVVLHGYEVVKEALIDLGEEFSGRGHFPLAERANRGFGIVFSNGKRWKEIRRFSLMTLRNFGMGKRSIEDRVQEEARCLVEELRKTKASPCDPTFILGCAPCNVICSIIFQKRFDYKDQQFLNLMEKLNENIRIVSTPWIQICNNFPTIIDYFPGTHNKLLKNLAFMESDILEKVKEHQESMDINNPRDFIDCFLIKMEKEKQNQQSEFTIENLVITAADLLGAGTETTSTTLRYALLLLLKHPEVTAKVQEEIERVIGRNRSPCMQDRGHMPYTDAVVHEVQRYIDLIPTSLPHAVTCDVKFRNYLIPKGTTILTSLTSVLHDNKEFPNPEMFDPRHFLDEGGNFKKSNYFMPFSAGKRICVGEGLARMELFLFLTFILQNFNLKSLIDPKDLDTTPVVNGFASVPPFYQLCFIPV

Sequence of Cytochrome P450 2C9 (P11712 whole entry): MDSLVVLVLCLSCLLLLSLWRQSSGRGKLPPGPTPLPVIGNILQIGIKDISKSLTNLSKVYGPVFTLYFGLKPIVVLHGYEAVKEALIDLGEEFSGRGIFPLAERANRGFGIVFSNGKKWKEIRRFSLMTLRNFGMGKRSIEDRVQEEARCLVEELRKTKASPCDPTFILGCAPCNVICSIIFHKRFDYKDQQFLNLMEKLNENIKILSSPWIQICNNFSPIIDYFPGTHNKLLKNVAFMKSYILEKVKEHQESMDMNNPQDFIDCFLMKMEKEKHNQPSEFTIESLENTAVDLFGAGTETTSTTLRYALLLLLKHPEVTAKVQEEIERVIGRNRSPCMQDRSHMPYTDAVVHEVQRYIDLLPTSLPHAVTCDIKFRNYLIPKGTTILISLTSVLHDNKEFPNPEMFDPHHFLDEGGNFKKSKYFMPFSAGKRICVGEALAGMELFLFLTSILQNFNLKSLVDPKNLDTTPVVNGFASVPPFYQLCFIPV

Regarding `CN1CCc2c(sc3c2C(=O)NC(c2cccc(OC(=O)c4cccs4)c2)N3)C1` (centres undefined), the EC50 in the series with H4 is 40 µM (active); in series [1] it was 8.11 µM (active); in series [2] it was 6.46 µM (active).
As for `COC(=O)c1nc(Cl)c(Cl)c(N)c1Cl`, in series [3], the half-maximal effective concentration (EC50) was > 195 µM (not active).
Still for that read-out and setting: the figure for `CN(C)c1ccc(/C=N/NC(=O)c2cccc(N3CCCC3=O)c2)cc1` is > 195 µM (not active).
Turning to `COc1ccc(CN2CCn3ncc(C(=O)Nc4ccccc4)c3C2=O)cc1`, the concentration for a half-maximal effect (EC50) was 18.9 µM (inconclusive) in the series with H4, 66.6 µM (active) in series [1] and 14.2 µM (active) in series [2].
As to `COc1ccc(-[n+]2cc(-c3ccccc3)n3c2CCCCC3)cc1`, the concentration at half-maximal activity (AC50) in the series with INS1 is 1.66 µM (active). The concentration giving a half-maximal response (EC50) was > 30 µM (not active) in series [4] and 0.453 µM (active) in series [5].
As to `CC(O)CNCCCOc1ccc(Cl)cc1C(C)(C)C` (centres undefined), the half-maximal effective concentration (EC50) in [3] is 142 µM (active).
For the compound `O=C(/C=C/c1ccco1)NCCc1ccccc1`, the concentration giving a half-maximal response (EC50) in the series on H4 was > 120 µM (not active); in series [1], 14.5 µM (active); in series [2], 10.9 µM (active).
With `Cc1ccc(-n2c(=O)[nH]cc(C(=O)N3CCc4ccccc43)c2=O)cc1`, the AC50 on Cytochrome P450 2C9 was 1 µM (inconclusive).
In the case of `Fc1ccccc1OCCSc1[nH]cnc2ncnc1-2`, the EC50 in the series on H4 was 14.9 µM (active); in [1], 13 µM (active); in series [2] it was > 120 µM (not active).
Take `Cc1ccc(S(=O)(=O)NC(C)(C)CSc2nncn2N)cc1`: in series [3], the half-maximal effective concentration (EC50) is reported as > 195 µM (not active).
Regarding `COc1cccc(Cn2c(=O)c(-c3cn(C)c4ccccc34)nc3cnc(OC)nc32)c1`, the concentration at half-maximal activity (AC50) is 15.8 µM (inconclusive) on Cytochrome P450 1A2 and 12.6 µM (inconclusive) on Cytochrome P450 2C9.
The matching figures for `N=C(N)Nc1nc(CCN2C(=O)c3ccccc3C2=O)cs1`: 12.6 µM (inconclusive) and 17.8 µM (inconclusive).
On to `O=C(CCl)NN1C(=O)NC(c2ccccc2)(c2ccccc2)C1=O`, for which the concentration for a half-maximal effect (EC50) in the series with H4 is > 120 µM (not active); in [1], > 120 µM (not active); in series [2] it was 13.1 µM (active).
For `O=C(Nc1cccc(Cl)c1)N1CCOCC1`, the EC50 in series [3] was > 195 µM (not active).
For `CC(C)n1cc(CN2CCCC(CNS(=O)(=O)c3cccc4cccnc34)C2)cn1` (centres undefined), the concentration giving a half-maximal response (EC50) in series [4] was > 60 µM (not active); in series [3], > 195 µM (not active); in [5] it was 0.798 µM (active).
As for `CC(=O)c1ccc(S(=O)(=O)N(Cc2cc3cc4c(cc3nc2O)OCCO4)CC2CCCO2)cc1` (centres undefined), the EC50 is 26.3 µM (active) in the series with H4, 6.68 µM (active) in [1] and 13.6 µM (active) in series [2].
In the case of `CCN1C(=S)SC(=O)C1=C1C=C(C)N(CCO)C(C)=C1`, the concentration giving a half-maximal response (EC50) in series [2] is 0.102 µM (active).
`O=C(Nc1ccccc1)N1CCOCC1`: the concentration at half-maximal activity (AC50) is 31.6 µM (inconclusive) on Cytochrome P450 2C19 (read-out: AC50) and 0.562 µM (inconclusive) on Cytochrome P450 2C9.
On to `COc1ccc(C(=O)COC(=O)CCN2C(=O)C3C4CC(C(Br)C4Br)C3C2=O)cc1` (centres undefined), for which the EC50 in series [3] is > 195 µM (not active).
In the case of `CCCc1cc2c(cc1NC(=O)c1ccccc1C)OCO2`, on Cytochrome P450 2C9, the half-maximal activity concentration (AC50) was 0.0562 µM (inconclusive).
For the compound `COc1cc(/C=N/NC2=NC(=O)C(CC(=O)O)S2)ccc1OCc1cccc(Cl)c1` (centres undefined), the concentration for a half-maximal effect (EC50) in the series with H4 is 19.7 µM (active); in series [1], 10.1 µM (active); in series [2], 6.12 µM (active).
Take `O=c1c2c3c(sc2nc2n1N=C(c1cccs1)CS2)CCCC3`: the EC50 with H4 is 0.118 µM (active).
In the case of `COC(=O)Cn1ncn2c(cc3oc(C)cc32)c1=O`, the concentration giving a half-maximal response (EC50) in the series on H4 is 14.7 µM (active); in series [1], 56 µM (active); in series [2], 2.68 µM (active).
With `O=C(CCc1nnc(C2CCCCC2)o1)N1CCN(c2ccccc2F)CC1`, the concentration for a half-maximal effect (EC50) was 11.8 µM (active) in series [1] and 9.13 µM (active) in series [2].
Turning to `COc1ccccc1CNc1ccnc(-c2ccoc2)n1`, the AC50 at Cytochrome P450 2C9 is 1.26 µM (inconclusive).
For `Cc1ccc2c(c1)N(C)/C(=C/c1cccc[n+]1CCO)S2`, in the series with INS1, the AC50 is 4.37 µM (active).
The same measure, in the same setting: for `Cc1ccc(N(CC(=O)Nc2cc(C)cc(C)c2)S(=O)(=O)c2c(C)noc2C)cc1` the value was 8.43 µM (active).
On to `COc1cccc2nc(O)c(-c3ccccc3)cc12`, for which the results for the EC50 in series [1] and in series [2] were 8.86 µM (active) and 9.22 µM (active), respectively.
In the case of `O=C(Nc1ccc(N2CCN(Cc3ccccc3Cl)CC2)cc1)c1cccnc1`, in the series with INS1, the AC50 is 4.75 µM (active).
`COc1ccc(C(=O)NCCn2ccc3ccccc32)cc1`: the 50% effective concentration (EC50) in the series with H4 was 0.488 µM (active); in series [1], 0.132 µM (active); in series [2], 0.185 µM (active).
Turning to `CCCNC(=O)OC[C@@H]1O[C@H](CCO/N=C(\C)CCC(=O)OC[C@@H]2O[C@H](c3ccccc3)C=C[C@@H]2Oc2ccc(OC)cc2)C=C[C@@H]1Oc1ccc(OC)cc1`, the values for the half-maximal activity concentration (AC50) on Cytochrome P450 2C19 (read-out: AC50) and at Cytochrome P450 2C9 were 0.0794 µM (inconclusive) and 3.98 µM (inconclusive), respectively.
On to `CC1CCCN(C(=O)CSc2nnc(-c3ccc(O)cc3)o2)C1` (centres undefined), for which the concentration giving a half-maximal response (EC50) in series [3] is reported as > 195 µM (not active).
Consider `C=CC(=O)NC(C)(C)Cc1ccccc1`, for which the concentration at half-maximal activity (AC50) at Cytochrome P450 2C9 was 10 µM (inconclusive).
Turning to `O=C1C=C(c2ccc3[nH]ccc3c2)CCC1`, the EC50 with H4 was 9.94 µM (active); in [1], 46.4 µM (active); in [2], 16 µM (active).
Consider `COc1ccc([N+](=O)[O-])c2c1CCN2C(=O)CC[C@H](N)C(=O)O`, for which the AC50 at Cytochrome P450 1A2 was 31.6 µM (inconclusive).
Turning to `Cc1cc(C)n(CCc2nc(-c3cc4ccccc4o3)cs2)n1`, the EC50 with H4 is 60.2 µM (active); in [1] it was 9.04 µM (active); in series [2] it was 7.17 µM (active).
Take `CCc1nnc(NC(=O)CSc2nc(C3CCCCC3)nc3ccccc23)s1`: the AC50 on Cytochrome P450 2C19 (read-out: AC50) is 5.01 µM (inconclusive); on Cytochrome P450 2C9, 3.55 µM (inconclusive).
For `COc1ccc(-n2cccc2/C=C2/NC(=O)N(c3cccc(Cl)c3)C2=O)cc1`, in series [3], the 50% effective concentration (EC50) was 30.2 µM (active).
Take `COc1ccc(C(=O)N/N=C/c2ccccc2OC(=O)c2ccccc2)cc1`: in the series with INS1, the AC50 is 2.35 µM (active).
For `COc1ccc(N2C(=O)CCC(C(=O)Nc3ccccn3)C2c2ccc(OC)c(OC)c2)cc1` (centres undefined), the concentration at half-maximal activity (AC50) at Cytochrome P450 2C9 was 3.16 µM (inconclusive).
As for `CC(=O)Nc1cc[n+](C(C)C(=O)c2ccccc2)cc1` (centres undefined), in series [3], the concentration giving a half-maximal response (EC50) is given as > 195 µM (not active).
On to `CN(Cc1ccco1)c1ncnc2ccc(-c3ccc4c(c3)OCO4)cc12`, for which, on Cytochrome P450 2C9, the concentration at half-maximal activity (AC50) was 1.26 µM (inconclusive).
Regarding `CC1(C)CN=C(N(Cc2ccccc2)C(=O)Nc2ccccc2)S1`, the half-maximal effective concentration (EC50) in the series with H4 is 18.8 µM (active); in series [1], 13.1 µM (active); in [2], 12.5 µM (active).
Take `COc1cccc(C2CC(c3ccccc3)n3ncnc3N2)c1` (centres undefined): the EC50 in [3] was > 195 µM (not active).
With `FC(F)(F)c1ccccc1N=C(S)N1CCN(Cc2ccc3c(c2)OCO3)CC1`, in the series on INS1, the concentration at half-maximal activity (AC50) was 7.02 µM (active).
`COc1cc(=O)n(C)c2c(OC[C@@H](O)C(C)(C)O)cccc12`: on Cytochrome P450 1A2, the half-maximal activity concentration (AC50) was 20 µM (inconclusive) and 12.6 µM (inconclusive).
For `COc1ccc(N(CC(=O)O)N=O)cc1`, the AC50 entry on Cytochrome P450 2C19 is “inconclusive”; on Cytochrome P450 1A2 it was 0.0251 µM (inconclusive).
With `CC(C)C[C@H](NC(=O)N1CCCCCC1)C(=O)O`, in [3], the EC50 is > 195 µM (not active).
